Literature values as cited in patent publication US20240131116A1, “METHODS AND THREAPEUTIC COMBINATIONS FOR TREATING IDIOPATHIC INTRACRANIAL HYPERTENSION AND CLUSTER HEADACHES” (NBO PHARMA LLC, priority 2021, published 2024).

Columns and labels:
[1] = human, in vivo
IIH [2] = settings: for most frequent / most common side effects / visual field grades: topiramate 100 to 150 mg daily, acetazolamide 1000 to 1500 mg/day
[3] = all patients treated
IIH [4] = system: IIH
[5] = in vivo

For NS(=O)(=O)c1ccc(N2CCCCS2(=O)=O)cc1 [sulthiame, p-(tetrahydro-2H-1,2-thiazin-2-yl)benzenesulfonamide, S,S-dioxide], the “patients with gastric complaints” value [1] is listed as “about 10%”.

For CC1(C)O[C@@H]2[C@@H](CO[C@@]3(COS(N)(=O)=O)OC(C)(C)O[C@@H]23)O1 [topiramate, 2,3:4,5-bis-O-(1-methylethylidene)-beta-D-fructopyranose sulfamate], the “weight loss, mean” value (IIH [2]; during 12 months period) is listed as 9.75 kg, the “most frequent / most common side effects” value (IIH [2]) is listed as “distal paresthesias, concentration difficulties and weight loss” and the visual field grades (IIH [2]) is listed as “Significant improvement”.

In the case of CC(=O)Nc1nnc(S(N)(=O)=O)s1 [acetazolamide, N-(5-sulfamoyl-1,3,4-thiadiazol-2-yl) acetamide], the “most frequent / most common side effects” value (IIH [2]) is listed as “fatigue and tingling of the hands and feet”, the visual field grades (IIH [2]) is listed as “Significant improvement” and the “patients who discontinued treatment due to adverse events” value [3] is listed as “Up to 20%”. The “vision (perimetric mean deviation, papilledema grade, vision-related quality of life) versus placebo” value (IIH [4]; maximum tolerated dose of up to 4 g/day) was “improved vision” and the “adverse events significantly more frequent than in placebo group” value (IIH [4]; up to 4 g/day) was “paresthesia, dysgeusia, fatigue, decreased carbon dioxide level, nausea, vomiting, diarrhea, and tinnitus”.

In the case of “L-alanyl-glycyl-L-cysteinyl-L-lysyl-L-asparagyl-L-phenylalanyl-L-phenylalanyl-L-tryptophyl-L-lysyl-L-threonyl-L-phenylalanyl-L-threonyl-L-seryl-L-cysteine (3->14)-disulfide [somatostatin]”, the biological half-life [5] is listed as 2-3 minutes.
